Assay [1] addresses T1, KRas WT (Homo sapiens, UniProt P01116).
T1 construct: Biotinylated KRas (corresponding to amino acids 1-169, produced at Accelegan Inc.); biotin (biotinylated); purchased Accelegan Inc
The assay is described as follows: KRas binding assay, TR-FRET displacement of Cy5 labelled tracer. The settings on record: 60-minute incubation at room temperature, 1% DMSO, pH 7.5. The gist of the method:
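Truncated KRas (1-169), biotinylated, Tb-streptavidin donor; one-hour room-temperature incubation; IC50 by four-parameter curve fitting.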
A general note: TR-FRET usually uses a lanthanide donor and a delayed reading to cut background.

The target in assay [2] is T2, KRas G12C (Homo sapiens, UniProt P01116, G12C).
T2 construct: Biotinylated KRas (corresponding to amino acids 1-169, produced at Accelegan Inc.); biotin (biotinylated); purchased Accelegan Inc
Described as above. The note with it: 60-minute incubation at room temperature, 1% DMSO, pH 7.5. The gist of the method: (§1)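 KRas aa 1-169, biotinylated; Tb-streptavidin donor; 1% DMSO final. Buffer: HEPES 50 mM (pH 7.5), MgCl2 5 mM, DTT 1 mM, Tween-20 0.005%. 60 min, RT. IC50 from 4-parameter fit of POC.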

Assay [3] deals with T3, KRas G12S (Homo sapiens, UniProt P01116, G12S).
T3 construct: Biotinylated KRas (corresponding to amino acids 1-169, produced at Accelegan Inc.); biotin (biotinylated); purchased Accelegan Inc
The description is as above. The settings on record: 60-minute incubation at room temperature, 1% DMSO, pH 7.5. The gist of the method:
as §1

In assay [4] the target is T4, KRas-mediated phosphorylation of ERK in MKN1 cells (Homo sapiens, UniProt P01116).
T4 construct: pERK HTRF read-out
The assay is described as follows: Inhibition of KRas-mediated phosphorylation of ERK (HTRF), MKN1 cells. The note with it: MKN1 cells (KRas WT); HTRF pERK; 3 h incubation. It is filed as cell-based. The procedure: Inhibition of KRas Phosphorylation of ERK (HTRF) by Exemplary Compounds of Formula (Ia) or (Ib)
Cisbio HTRF Advanced pERK Assay Catalog #64AERPEH • Cells: MKN1, PSN1 • Procedure: • 1. Day 1: Seed 6,000 cells/well −25 μl/well in 384-well white solid bottom plate; RPM1_10% FBS. Incubate overnight at 37 °C/5% CO2. • 2.

The target in assay [5] is T5, KRas-mediated phosphorylation of ERK in A549 cells (Homo sapiens, UniProt P01116, G12S).
T5 construct: pERK HTRF read-out
Put plainly: Inhibition of KRas-mediated phosphorylation of ERK (HTRF), A549 cells. Type of assay: cell-based. The note with it: HTRF pERK, 3 h incubation.

Assay [6] addresses T6, KRas-mediated phosphorylation of ERK in H358 cells (Homo sapiens, UniProt P01116, G12C).
T6 construct: pERK HTRF read-out
Put plainly: Inhibition of KRas-mediated phosphorylation of ERK (HTRF), H358 cells. Type of assay: cell-based. The settings on record: HTRF pERK, 3 h incubation.

T3 sequence (P01116 1-169 isoform P01116-2 G12S): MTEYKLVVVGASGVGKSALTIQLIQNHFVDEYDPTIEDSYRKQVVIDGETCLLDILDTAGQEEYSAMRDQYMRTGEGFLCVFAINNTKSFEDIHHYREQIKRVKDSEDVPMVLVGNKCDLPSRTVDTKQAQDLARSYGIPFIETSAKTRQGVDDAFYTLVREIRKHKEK
T2 sequence (P01116 1-169 isoform P01116-2 G12C): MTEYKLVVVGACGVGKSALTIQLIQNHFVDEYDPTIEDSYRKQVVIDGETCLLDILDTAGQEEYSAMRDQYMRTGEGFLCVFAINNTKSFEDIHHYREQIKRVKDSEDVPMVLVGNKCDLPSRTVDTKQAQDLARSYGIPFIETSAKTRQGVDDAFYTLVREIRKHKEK
T6 sequence (P01116 1-188 isoform P01116-2 G12C): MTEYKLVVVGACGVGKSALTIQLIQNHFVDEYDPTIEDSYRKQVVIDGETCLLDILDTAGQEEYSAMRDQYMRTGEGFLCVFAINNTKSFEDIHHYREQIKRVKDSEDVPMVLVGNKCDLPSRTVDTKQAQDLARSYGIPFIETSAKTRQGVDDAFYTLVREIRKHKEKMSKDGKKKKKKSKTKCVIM
T4 sequence (P01116 1-188 isoform P01116-2): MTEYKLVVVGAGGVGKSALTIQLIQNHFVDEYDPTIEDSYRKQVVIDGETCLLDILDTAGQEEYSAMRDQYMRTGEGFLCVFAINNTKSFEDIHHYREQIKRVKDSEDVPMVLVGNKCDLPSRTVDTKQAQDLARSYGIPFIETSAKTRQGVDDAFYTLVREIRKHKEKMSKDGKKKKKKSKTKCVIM
T5 sequence (P01116 1-188 isoform P01116-2 G12S): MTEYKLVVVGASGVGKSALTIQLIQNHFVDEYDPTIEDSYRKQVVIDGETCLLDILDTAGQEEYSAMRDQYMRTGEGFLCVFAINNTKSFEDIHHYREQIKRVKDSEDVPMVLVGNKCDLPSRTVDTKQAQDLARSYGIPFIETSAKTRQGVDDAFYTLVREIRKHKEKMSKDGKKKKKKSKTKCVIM
T1 sequence (P01116 1-169 isoform P01116-2): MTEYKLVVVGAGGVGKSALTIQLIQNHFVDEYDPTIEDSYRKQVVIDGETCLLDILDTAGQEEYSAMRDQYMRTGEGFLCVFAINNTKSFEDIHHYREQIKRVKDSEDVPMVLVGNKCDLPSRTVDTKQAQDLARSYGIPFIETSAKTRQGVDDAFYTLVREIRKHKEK

In general, IC50 refers to the concentration that inhibits the measured activity by half. A low value points to greater potency. Consider `CCN(C(C)=O)C(=O)CCCN(C)c1nc(OC[C@@]23CCCN2C[C@H](F)C3)nc2c(F)c(-c3ccc(F)c4sc(N)c(C#N)c34)c(Cl)cc12` [Example 291, N-acetyl-4-((7-(2-amino-3-cyano-7-fluorobenzo[b]thiophen-4-yl)-6-chloro-8-fluoro-2-(((2R,7aS)-2-fluorotetrahydro-1H-pyrrolizin-7a(5H)-yl)methoxy)quinazolin-4-yl)(methyl)amino)-N-ethylbutanamide], for which the IC50 in assay [1] is 12 nM; in assay [2], 6 nM; in assay [3] it was 7 nM; in assay [4], 134 nM; in assay [5], 65 nM; in assay [6] it was 81 nM.

In the case of `CN(C(=O)CCCN(C)c1nc(OC[C@@]23CCCN2C[C@H](F)C3)nc2c(F)c(-c3ccc(F)c4sc(N)c(C#N)c34)c(Cl)cc12)C(=O)c1ccn(C)n1` [Example 292, N-(4-((7-(2-amino-3-cyano-7-fluorobenzo[b]thiophen-4-yl)-6-chloro-8-fluoro-2-(((2R,7aS)-2-fluorotetrahydro-1H-pyrrolizin-7a(5H)-yl)methoxy)quinazolin-4-yl)(methyl)amino)butanoyl)-N, 1-dimethyl-1H-pyrazole-3-carboxamide], the IC50 was 11 nM in assay [1]; 3 nM in assay [2]; 5 nM in assay [3]; 80 nM in assay [4]; 27 nM in assay [5]; 30 nM in assay [6].

In the case of `CCc1c(F)ccc2cc(O)cc(-c3ncc4c(N5CCC(C(=O)n6cc(OC)cn6)CC5)nc(OC[C@@]56CCCN5C[C@H](F)C6)nc4c3F)c12` [Example 294, (1-(7-(8-ethyl-7-fluoro-3-hydroxynaphthalen-1-yl)-8-fluoro-2-(((2R,7aS)-2-fluorotetrahydro-1H-pyrrolizin-7a(5H)-yl)methoxy)pyrido[4,3-d]pyrimidin-4-yl)piperidin-4-yl)(4-methoxy-1H-pyrazol-1-yl)methanone], the IC50 in assay [1] came to 130 nM; in assay [2], 61 nM; in assay [3] it was 22 nM; in assay [4], 3870 nM; in assay [5], 74 nM; in assay [6] it was 4490 nM.

As to `N#Cc1c(N)sc2c(F)ccc(-c3c(C(F)(F)F)cc4c(N5CCC(C(=O)Oc6ccccc6)CC5)nc(OC[C@@]56CCCN5C[C@H](F)C6)nc4c3F)c12` [Example 295, phenyl 1-(7-(2-amino-3-cyano-7-fluorobenzo[b]thiophen-4-yl)-8-fluoro-2-(((2R,7aS)-2-fluorotetrahydro-1H-pyrrolizin-7a(5H)-yl)methoxy)-6-(trifluoromethyl)quinazolin-4-yl)piperidine-4-carboxylate], the IC50 was 44 nM in assay [1]; 11 nM in assay [2]; 12 nM in assay [3]; 56 nM in assay [4]; 14 nM in assay [5]; 5 nM in assay [6].

For the molecule `N#Cc1c(N)sc2c(F)ccc(-c3c(Cl)cc4c(N5CCC(C(=O)Oc6cccnc6)CC5)nc(OC[C@@]56CCCN5C[C@H](F)C6)nc4c3F)c12` [Example 296, pyridin-3-yl 1-(7-(2-amino-3-cyano-7-fluorobenzo[b]thiophen-4-yl)-6-chloro-8-fluoro-2-(((2R,7aS)-2-fluorotetrahydro-1H-pyrrolizin-7a(5H)-yl)methoxy)quinazolin-4-yl)piperidine-4-carboxylate], the IC50 in assay [1] turned out to be 30 nM; in assay [2], 3 nM; in assay [3], 3 nM; in assay [4] it was 318 nM; in assay [5] it was 16 nM; in assay [6] it was 15 nM.

In the case of `N#Cc1c(N)sc2c(F)ccc(-c3c(Cl)cc4c(N5CCC(C(=O)Oc6cccc(Cl)c6)CC5)nc(OC[C@@]56CCCN5C[C@H](F)C6)nc4c3F)c12` [Example 297, 3-chlorophenyl 1-(7-(2-amino-3-cyano-7-fluorobenzo[b]thiophen-4-yl)-6-chloro-8-fluoro-2-(((2R,7aS)-2-fluorotetrahydro-1H-pyrrolizin-7a(5H)-yl)methoxy)quinazolin-4-yl)piperidine-4-carboxylate], the IC50 in assay [1] amounted to 99 nM; in assay [2] it was 23 nM; in assay [3], 45 nM; in assay [4], 299 nM; in assay [5] it was 101 nM; in assay [6] it was 32 nM.

As for `N#Cc1c(N)sc2c(F)ccc(-c3c(Cl)cc4c(N5CCC(C(=O)Oc6ccccc6Cl)CC5)nc(OC[C@@]56CCCN5C[C@H](F)C6)nc4c3F)c12` [Example 298, 2-chlorophenyl 1-(7-(2-amino-3-cyano-7-fluorobenzo[b]thiophen-4-yl)-6-chloro-8-fluoro-2-(((2R,7aS)-2-fluorotetrahydro-1H-pyrrolizin-7a(5H)-yl)methoxy)quinazolin-4-yl)piperidine-4-carboxylate], the IC50 in assay [1] stood at 154 nM; in assay [2] it was 17 nM; in assay [3], 80 nM; in assay [4] it was 217 nM; in assay [5], 169 nM; in assay [6], 16 nM.

Turning to `N#Cc1c(N)sc2c(F)ccc(-c3c(Cl)cc4c(N5CCC(C(=O)Oc6ccc(F)cc6)CC5)nc(OC[C@@]56CCCN5C[C@H](F)C6)nc4c3F)c12` [Example 299, 4-fluorophenyl 1-(7-(2-amino-3-cyano-7-fluorobenzo[b]thiophen-4-yl)-6-chloro-8-fluoro-2-(((2R,7aS)-2-fluorotetrahydro-1H-pyrrolizin-7a(5H)-yl)methoxy)quinazolin-4-yl)piperidine-4-carboxylate], the IC50 in assay [1] is 178 nM; in assay [2], 9 nM; in assay [3] it was 22 nM; in assay [4] it was 323 nM; in assay [5] it was 93 nM; in assay [6] it was 12 nM.

For `COc1ccccc1OC(=O)C1CCN(c2nc(OC[C@@]34CCCN3C[C@H](F)C4)nc3c(F)c(-c4ccc(F)c5sc(N)c(C#N)c45)c(Cl)cc23)CC1` [Example 300, 2-methoxyphenyl 1-(7-(2-amino-3-cyano-7-fluorobenzo[b]thiophen-4-yl)-6-chloro-8-fluoro-2-(((2R,7aS)-2-fluorotetrahydro-1H-pyrrolizin-7a(5H)-yl)methoxy)quinazolin-4-yl)piperidine-4-carboxylate], the IC50 in assay [1] came out at 163 nM; in assay [2] it was 9 nM; in assay [3], 85 nM; in assay [4], 408 nM; in assay [5] it was 115 nM; in assay [6], 9 nM.

As to `N#Cc1c(N)sc2c(F)ccc(-c3c(Cl)cc4c(N5CCC(C(=O)Oc6ccc(Cl)cc6)CC5)nc(OC[C@@]56CCCN5C[C@H](F)C6)nc4c3F)c12` [Example 301, 4-chlorophenyl 1-(7-(2-amino-3-cyano-7-fluorobenzo[b]thiophen-4-yl)-6-chloro-8-fluoro-2-(((2R,7aS)-2-fluorotetrahydro-1H-pyrrolizin-7a(5H)-yl)methoxy)quinazolin-4-yl)piperidine-4-carboxylate], the IC50 in assay [1] is 142 nM; in assay [2] it was 16 nM; in assay [3], 43 nM; in assay [4], 264 nM; in assay [5], 113 nM; in assay [6], 20 nM.

In the case of `N#Cc1c(N)sc2c(F)ccc(-c3c(Cl)cc4c(N5CCC(C(=O)Oc6cccc(F)c6)CC5)nc(OC[C@@]56CCCN5C[C@H](F)C6)nc4c3F)c12` [Example 302, 3-fluorophenyl 1-(7-(2-amino-3-cyano-7-fluorobenzo[b]thiophen-4-yl)-6-chloro-8-fluoro-2-(((2R,7aS)-2-fluorotetrahydro-1H-pyrrolizin-7a(5H)-yl)methoxy)quinazolin-4-yl)piperidine-4-carboxylate], the half-maximal inhibitory concentration (IC50) in assay [1] is 164 nM; in assay [2], 12 nM; in assay [3], 25 nM; in assay [4], 286 nM; in assay [5], 79 nM; in assay [6] it was 18 nM.

As for `CN1CC2(CCN(c3nc(OC[C@@]45CCCN4C[C@H](F)C5)nc4c(F)c(-c5ccc(F)c6sc(N)c(C#N)c56)c(Cl)cc34)CC2)C1=O` [Example 303, 2-amino-4-(6-chloro-8-fluoro-2-(((2R,7aS)-2-fluorotetrahydro-1H-pyrrolizin-7a(5H)-yl)methoxy)-4-(2-methyl-1-oxo-2,7-diazaspiro[3.5]nonan-7-yl)quinazolin-7-yl)-7-fluorobenzo[b]thiophene-3-carbonitrile], the IC50 in assay [1] worked out at 4 nM; in assay [2], 3 nM; in assay [3], 3 nM; in assay [4], 4 nM; in assay [5], 59 nM; in assay [6], 14 nM.

These data come from patent US20260356856A1, “KRAS G12S AND G12C INHIBITORS” (MIRATI THERAPEUTICS, INC., priority 2023, published 2026).
